Laboratory results from BindingDB's records for doi:10.1074/jbc.M112.399303 (Universidade Federal do Rio de Janeiro, 2014).

Assays:
Assay in all cases: Diffusion Ordered Spectroscopy (DOSY)
Conditions in all cases: 11 °C
[1] = molecular target: T1, Trans-sialidase [3-643,Y342H] (Trypanosoma cruzi, UniProt Q9BHJ5, Y342H)
T1 construct: 3-643
Description: (§1) Solutions of TS, TSY342H, and TSD247A in 20 mM Tris-HCl were exchanged with deuterated PBS using four cycles of concentration with Amicon Ultra (50,000 nominal molecular weight limit; Millipore) and diluted in deuterated PBS. One hundred microliters of 0.1 mM protein solution (TcTSs or BSA) was titrated with the sialoside (0.2, 0.4, 0.6, 0.8, 1.0, 1.2, 1.6, and 2.0 mM) or lacto-N-neotetraose (0.1, 0.2, 0.3, 0.4, 0.5, 0.6, 0.7, and 0.9mM) as a negative control. The solution containing 0.1 mM protein plus sialoside was further titrated with Me-Lac (0.1, 0.2, 0.3, 0.4, 0.5, 0.6, 0.7, and 0.9 mM) in Shigemi tubes. NMR spectra were obtained at a probe temperature of 293 K on a Bruker DMX 600-MHz spectrometer equipped with a 5-mm self-shielded gradient triple resonance probe. All DOSY experiments were performed with a stimulated echo using bipolar gradient pulses for diffusion, one spoil gradient, and the 3-9-19 pulse sequence with gradients for water suppression according to the Bruker pulse program stebpgp1s19. The gradient duration was set to δ = 10 ms (protein-only experiments) and 20ms (protein⋅carbohydrate complexes experiments), and the diffusion time was set to Δ = 40 ms. Gradient strength was linearly varied in 16 steps from 0.6 to 6.7 G/cm. For each of the 16 gradient amplitudes, eight transients of 192 complex data points were acquired to a 10.0-ppm spectral width. The pulse repetition delay between each scan was 3 s.

Trans-sialidase [3-643] = molecular target: T2, Trans-sialidase [3-643] (Trypanosoma cruzi, UniProt Q9BHJ5)
T2 construct: 3-643
T2 sequence (Q9BHJ5 whole entry): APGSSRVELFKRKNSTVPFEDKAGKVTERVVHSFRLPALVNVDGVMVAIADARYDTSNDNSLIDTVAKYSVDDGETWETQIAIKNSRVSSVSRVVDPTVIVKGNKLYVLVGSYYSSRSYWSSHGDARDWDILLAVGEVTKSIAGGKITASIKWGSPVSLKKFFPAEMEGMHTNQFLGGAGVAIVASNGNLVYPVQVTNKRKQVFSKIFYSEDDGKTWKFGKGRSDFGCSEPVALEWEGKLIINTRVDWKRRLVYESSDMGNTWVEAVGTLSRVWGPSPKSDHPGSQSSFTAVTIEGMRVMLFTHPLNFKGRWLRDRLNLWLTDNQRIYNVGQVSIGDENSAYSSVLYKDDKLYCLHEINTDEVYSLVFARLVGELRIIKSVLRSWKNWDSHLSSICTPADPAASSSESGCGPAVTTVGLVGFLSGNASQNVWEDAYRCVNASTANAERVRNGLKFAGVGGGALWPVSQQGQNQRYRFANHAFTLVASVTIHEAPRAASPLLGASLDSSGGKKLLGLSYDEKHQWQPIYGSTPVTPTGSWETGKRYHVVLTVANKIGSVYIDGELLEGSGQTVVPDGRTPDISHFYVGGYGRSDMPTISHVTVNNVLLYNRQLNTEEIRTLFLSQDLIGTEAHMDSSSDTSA
Description: as §1

[2] = molecular target: T3, Trans-sialidase [3-643,D247A] (Trypanosoma cruzi, UniProt Q9BHJ5, D247A)
T3 construct: 3-643
Description: as §1

T1 sequence (Q9BHJ5 3-643 Y344H): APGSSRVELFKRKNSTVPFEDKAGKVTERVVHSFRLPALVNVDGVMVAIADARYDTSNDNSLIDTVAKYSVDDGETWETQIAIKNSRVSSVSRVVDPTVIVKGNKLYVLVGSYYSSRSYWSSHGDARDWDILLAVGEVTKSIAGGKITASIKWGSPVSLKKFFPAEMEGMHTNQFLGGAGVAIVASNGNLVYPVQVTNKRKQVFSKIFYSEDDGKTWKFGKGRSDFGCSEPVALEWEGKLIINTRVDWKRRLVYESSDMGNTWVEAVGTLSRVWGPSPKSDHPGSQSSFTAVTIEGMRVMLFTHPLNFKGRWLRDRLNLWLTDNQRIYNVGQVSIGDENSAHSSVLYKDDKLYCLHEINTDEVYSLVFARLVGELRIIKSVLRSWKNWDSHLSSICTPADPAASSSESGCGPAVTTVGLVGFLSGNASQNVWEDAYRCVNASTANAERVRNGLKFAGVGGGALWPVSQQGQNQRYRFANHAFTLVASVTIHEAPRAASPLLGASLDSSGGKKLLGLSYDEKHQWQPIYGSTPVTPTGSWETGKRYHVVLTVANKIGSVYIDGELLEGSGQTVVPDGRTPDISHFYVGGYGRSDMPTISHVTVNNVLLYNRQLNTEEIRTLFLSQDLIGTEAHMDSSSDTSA
T3 sequence (Q9BHJ5 3-643 D249A): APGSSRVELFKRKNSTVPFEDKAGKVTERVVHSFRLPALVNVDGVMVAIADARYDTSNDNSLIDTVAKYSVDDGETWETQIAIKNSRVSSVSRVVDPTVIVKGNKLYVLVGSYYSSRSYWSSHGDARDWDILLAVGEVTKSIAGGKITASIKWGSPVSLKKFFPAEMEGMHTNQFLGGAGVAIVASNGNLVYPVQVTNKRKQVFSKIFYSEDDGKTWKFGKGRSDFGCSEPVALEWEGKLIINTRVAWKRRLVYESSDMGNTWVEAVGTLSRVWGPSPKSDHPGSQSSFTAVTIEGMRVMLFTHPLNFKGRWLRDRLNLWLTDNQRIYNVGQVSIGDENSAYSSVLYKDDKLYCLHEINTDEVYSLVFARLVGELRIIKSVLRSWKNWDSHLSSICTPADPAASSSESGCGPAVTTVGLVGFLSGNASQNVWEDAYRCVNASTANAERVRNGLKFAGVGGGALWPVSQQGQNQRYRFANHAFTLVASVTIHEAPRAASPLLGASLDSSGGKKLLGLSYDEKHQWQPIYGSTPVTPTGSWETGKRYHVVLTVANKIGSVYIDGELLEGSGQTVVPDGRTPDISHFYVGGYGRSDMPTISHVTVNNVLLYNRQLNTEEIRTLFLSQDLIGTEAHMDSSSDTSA

Row | Structure (SMILES) | Kd [1] [µM] | Kd (Trans-sialidase [3-643]) [µM] | Kd [2] [µM]
1 | CO[C@@H]1O[C@H](CO)[C@@H](O[C@@H]2O[C@H](CO)[C@H](O)[C@H](O)[C@H]2O)[C@H](O)[C@H]1O [CHEBI:610092] | 52 | 15 | –
2 | COC1OC(CO)C(O)C(SC2(C(=O)O)CC(O)C(NC(C)=O)C([C@H](O)[C@H](O)CO)O2)C1O (stereo not given in full) [NeuSGal] | – | 456 | –
3 | CC(=O)NC1C(O)CC(OC2C(O)C(CO)OC(OC3C(CO)OC(O)C(O)C3O)C2O)(C(=O)O)OC1[C@H](O)[C@H](O)CO (stereo partly drawn) [α2,3'-sialyllactose] | 234 | – | 107
